Laboratory results reported in patent US6896895B2, “Carotenoid esters, carotenoid-enriched feeds, and methods of pigmenting foods and foodstuffs” (DSM IP Assets B.V., priority 2000, dated 2005).

Columns and labels:
[1] = test system: skin and shanks of broilers; test: Reflectance colorimetry and visual classification of skin and shanks of broilers; type: in vivo, broiler chickens (Ross 308, Ross 508); set-up: key to Shanks Visual Classification / Skin Visual Classification: −; (+); +; ++ = good color; o = orange; settings: dry carcasses, average over doses, Table 6
Experimental: (§1) Pigmentation efficacy was assessed in egg yolk, in the back skin of the broiler carcass, and in broiler shanks by reflectance colorimetry accompanied by visual scoring (Roche Colour Fan). The deposition of the ethyl-β-apo-8′-carotenoate (control) and the other carotenoid esters was determined in egg yolk and in the broiler back skin. In addition, the carotenoid levels in plasma and abdominal fat were measured.
(§2) The trials were carried out using chickens of the type Ross 308 (trials MC-24/98 and MC-02/99) and Ross 508 (trials MC-11/99, MC-16/99, MC-24/99, and MC-03/00) (Couvir de la Bohardière, F-49290 Saint Laurent de la Plaine). One-day old broiler chickens, separated by sex, were divided by weight into experimental groups of ten animals each and reared in floor pens littered with wood shavings. The chickens were fed a low carotenoid basal grower diet until day 22 (trials MC-24/98, MC-02/99, and MC-11/99) or until day 15 (trials MC-16/99, MC-24/99, and MC-03/00). The low carotenoid basal grower diet contained less than 2 mg total xanthophylls per kg of feed, and its composition is described in Table 2. For the subsequent experimental period of three weeks, the birds received the basal diet supplemented with an appropriate pigment. The feed was given in the form of crumbled pellets during the first week and as pellets thereafter. The animals had unrestricted access to feed and water. A given treatment involved one group of male and one group of female chickens. Each group of chickens was weighed at day 22 (trials MC-24/98, MC-02/99, and MC-11/99) or day 15 (trials MC-16/99, MC-24/99, and MC-03/00) and on day 43. On day 42, five chickens per group were selected at random, labelled, and blood samples were taken from the jugular vein. At the end of the experiment (day 44) the animals were slaughtered in a commercial slaughterhouse (Freyburger, Dannemarie, France). The following day, the color of the skin (hind back of carcasses) and the shanks of the labelled chicken were measured by reflectance colorimetry (Minolta CR 200 apparatus, CIE-Lab system). Samples of the dorsal skin and abdominal fat were obtained, pooled for each experimental group, and the carotenoid concentration was determined. The concentration of carotenoids in feed, plasma, skin, and abdominal fat was determined by standard procedures as described after Tables 1 and 2.
The color of broiler skin and shanks was measured using a tristimulus Minolta CR-300 Chromameter with diffuse D65-illumination and a 0° viewing angle. The color of the skin was read at three different points on the back of the dry broiler carcasses and average values of the triple measurements were recorded. The color of shanks was measured using single measurements at the ball between the toes.
(§3) The color data were expressed as CIE L*a*b*-values including h*(hue) and C* (chroma). The values given in the tables per treatment and trial represent averages of color measurements of four egg yolk pools, ten broiler back skins, or ten broiler shanks (5 males and 5 females).

egg yolk = test: Egg yolk colour: reflectance colorimetry and Roche Yolk Colour Fan; type: in vivo, laying hens (ISA Brown); settings: egg yolk, laying hens, 5.0 mg/kg feed
Experimental: as §1
The trials were carried out following the standard experimental design used for egg yolk pigmentation trials at the Roche Research Center for Animal Nutrition (CRNA, F-68305 Village-Neuf, France). Each year in February the pigmentation trials are started with a new flock of layers. At the beginning of the trials the age of the laying hens (192 birds, type ‘ISA Brown’) were as follows:
(§4) Preceding the trials the hens were fed a low carotenoid basal diet (produced at the CRNA) without carotenoid supplementation for at least 28 days. During the trials, the control group received the low carotenoid basal diet containing less than 2 mg total xanthophylls per kg of feed. The other animals were fed this diet supplemented with the appropriate pigments for three weeks. The diet was given to the animals ad libitum in mash form. The hens had free access to tap water. Beside the unsupplemented control treatment, treatments were carried out involving the provision of supplemented feed, the results of these treatments being presented in Tables 7-9.
Egg yolk color was assessed as described by Steinberg, et al. (Arch. Geflügelk 64 (4), 180-187 (2000)). The yolks were manually separated from the whites of the eggs. The isolated yolks of three to six eggs were combined, weighed, and stirred with a glass rod until the color appeared homogeneous. The color hue was visually scored using the Roche Yolk Colour Fan (RYCF, version 1993). An aliquot of the pooled egg yolks was transferred into a glass cuvette yielding an approximately 2 cm thick layer. The color was then measured by means of a Dr. Lange Xeno Color LS 100 spectro-colorimeter with diffuse D65-illumination and a 8° viewing angle.
as §3

[2] = Carotenoid ester content and deposition rate in egg yolk of laying hens (HPLC); type: in vivo, laying hens (ISA Brown); settings: egg yolk; for Deposition Rate Target Values % of Controls / Ethyl β-apo-8′-carotenoate Equivalents % of Controls: Table 8; for Deposition Rate % of Controls: Table 10
Experimental: as §1
Each year in February the pigmentation trials are started with a new flock of layers.
as §4, with “water.” for “water. Beside the unsupplemented control treatment, treatments were carried out involving the provision of supplemented feed, the results of these treatments being presented in Tables 7-9.”
Peaks were related to all-E- and Z-isomers of the various carotenoid esters by chromatography of heat-isomerized solutions of the respective reference substances in n-hexane. The HPLC system was calibrated with the all-E-isomer of ethyl β-apo-8′-carotenoate. The response factor of the various derivatives was deduced from that of ethyl β-apo-8′-carotenoate taking into account the respective molecular weight. The content of the Z-isomer fractions was calculated based on the response of the all-E-isomer and using a correction factor of 1.4 to account for the lower specific absorbance of the Z-isomers.
(§5) The HPLC-system for in-feed analysis was also used to quantify the carotenoid esters in egg yolk, broiler tissues, and broiler plasma, but the extraction procedure was different for the various matrices.
For the extraction of egg yolk, 10 g of pooled and homogenised yolk were mixed with 10 ml of demineralized water using a dispersion instrument (Polytron). 1.0 g of diluted egg yolk was introduced into a 10 ml test tube with 1.0 ml of demineralized water and 2.0 ml of ethanol, and the contents were mixed on a Vortex shaker. After addition of 4.0 ml of n-hexane, the mixture was further treated as described for plasma.

[3] = Carotenoid ester content in plasma, back skin and abdominal fat of broilers (HPLC); type: in vivo, broiler chickens (Ross 308, Ross 508); settings: average over doses, Table 4
Experimental: as §1, §2
The content of the various carotenoid esters in feed was determined according to the method of Schierle, et al. (J. Schierle , N. Faccin, V. Riegert, Analytical Methods for Vitamins and Carotenoids in Feed, Revised supplement: Determination of Stabilized Apocarotenoic Ester and Canthaxanthin in Premixes and Feeds, Roche publication no. 50771 (1995), publicly available from. F. Hoffmann-La Roche Ltd., CH-4070 Basel). This method was modified in that the mobile phase of the normal-phase HPLC contained 0.5% instead of 7% acetone in n-hexane, improving the separation of the E/Z-isomers of the carotenoid esters. Peaks were related to all-E- and Z-isomers of the various carotenoid esters by chromatography of heat-isomerized solutions of the respective reference substances in n-hexane. The HPLC system was calibrated with the all-E-isomer of ethyl β-apo-8′-carotenoate. The response factor of the various derivatives was deduced from that of ethyl β-apo-8′-carotenoate taking into account the respective molecular weight. The content of the Z-isomer fractions was calculated based on the response of the all-E-isomer and using a correction factor of 1.4 to account for the lower specific absorbance of the Z-isomers.
as §5
For plasma extraction, 1.0 g of the well-mixed plasma sample was introduced into a 10 ml test tube with 1.0 ml of demineralized water and 4.0 ml of ethanol, and the contents mixed on a Vortex shaker. […]

Row | Deposition Rate Target Values % of Controls ([2]; trial H-25/99, 5.0 mg/kg feed) [%] | Ethyl β-apo-8′-carotenoate Equivalents % of Controls ([2]; trial H-25/99, 5.0 mg/kg feed) [%] | Deposition Rate % of Controls ([2]; trial H-25/99, 5.0 mg/kg feed) [%] | Analytical Content as Equivalent of Ethyl β-apo-8′-carotenoate in % of control Fat [3] [%] | Analytical Content as Equivalent of Ethyl β-apo-8′-carotenoate in % of control Plasma [3] [%] | Analytical Content as Equivalent of Ethyl β-apo-8′-carotenoate in % of control Skin [3] [%] | Structure (SMILES) | Shanks Chroma C*ab % of Controls [1] [%] | Shanks Color Hue h*ab % of Controls [1] [%] | Shanks Visual Classification [1] | Skin Chroma C*ab % of Controls [1] [%] | Skin Color Hue h*ab % of Controls [1] [%] | Skin Visual Classification [1] | Color Fan Value % of Controls (egg yolk; trial H-25/99, Table 8) [%] | Chroma C*ab % of Controls (egg yolk; trial H-25/99, Table 10) [%] | Color Fan Value % of Controls (egg yolk; trial H-25/99, Table 10) [%] | Color Hue h*ab % of Controls (egg yolk; trial H-25/99, Table 10) [%] | further results
1 | 95 | 86 | 95 | 45 | 62 | 40 | CCC(C)COC(=O)C(C)=CC=CC(C)=CC=CC=C(C)C=CC=C(C)C=CC1=C(C)CCCC1(C)C (stereo not drawn) [(7), 2-methyl-butyl beta-apo-8′-carotenoate] | 85 | 101 | (+) | 80 | 94 | (+) | 108 | 87 | 108 | 106 | –
2 | 99 | 82 | 99 | 38 | 60 | 44 | CC(C=CC=C(C)C=CC1=C(C)CCCC1(C)C)=CC=CC=C(C)C=CC=C(C)C(=O)OC1CCCCC1 [(16), cyclohexyl beta-apo-8′-carotenoate] | 84 | 103 | (+) | 80 | 95 | + | 108 | 112 | 108 | 97 | –
3 | – | – | – | 35 | 62 | 38 | CC(C=CC=C(C)C=CC1=C(C)CCCC1(C)C)=CC=CC=C(C)C=CC=C(C)C(=O)OCCC(C)C [(6), isoamyl beta-apo-8′-carotenoate] | 86 | 101 | (+) | 89 | 99 | (+) | – | – | – | – | Color Fan Value % of Controls (egg yolk; trial H-18/99, Table 8): 116%; Chroma C*ab % of Controls (egg yolk; trial H-18/99, Table 10): 105%; Color Fan Value % of Controls (egg yolk; trial H-18/99, Table 10): 116%; Color Hue h*ab % of Controls (egg yolk; trial H-18/99, Table 10): 101%; Deposition Rate Target Values % of Controls ([2]; trial H-18/99, 5.0 mg/kg feed): 90%; Ethyl β-apo-8′-carotenoate Equivalents % of Controls ([2]; trial H-18/99, 5.0 mg/kg feed): 80%; Deposition Rate % of Controls ([2]; trial H-18/99, 5.0 mg/kg feed): 90%
